Measured values published in patent publication US9113629B2, “4-amino-6-(4-substituted-phenyl)-picolinates and 6-amino-2-(4-substituted-phenyl)-pyrimidine-4-carboxylates and their use as herbicides” (DOW AGROSCIENCES LLC, priority 2013, dated 2015).
Read-outs that look alike come from different tables or passages of the source.

Tests used:
[1] = system: Key Broadleaf Weed and Crop Species; test: Post-emergent Test II herbicidal activity (Table 5); format: in vivo; details: post-emergence, 336 h, 14 days after application; for pest or weed control at 70 g/ha: application rate 70 g ai/ha; for pest or weed control at 140 g/ha: application rate 140 g ai/ha
Procedure, shortened: (§1)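 Greenhouse-grown plants at first or second true leaf stage were sprayed post-emergence with compound in acetone/DMSO-based aqueous spray containing crop oil concentrate and surfactant, at 187 L/ha, highest rate plus ½× to 1/16× dilutions. After 14 d, injury was scored visually versus untreated plants, 0 (none) to 100% (complete kill).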

[2] = system: Key Grass and Sedge Weeds as well as Grass Crops; test: Post-emergent Test II herbicidal activity (Table 6); format: in vivo; details: post-emergence, 336 h
Procedure, shortened: as §1

[3] = ABUTH: velvetleaf (Abutilon theophrasti), read-out: Visual Growth Reduction (%) 14 Days After Application, ABUTH
[4] = AMARE: redroot pigweed (Amaranthus retroflexus), read-out: Visual Growth Reduction (%) 14 Days After Application, AMARE
[5] = BRSNN: oilseed-rape, canola (Brassica napus), read-out: Visual Growth Reduction (%) 14 Days After Application, BRSNN
[6] = CHEAL: lambsquarters (Chenopodium album), read-out: Visual Growth Reduction (%) 14 Days After Application, CHEAL
[7] = EPHHL: wild poinsettia (Euphorbia heterophylla), read-out: Visual Growth Reduction (%) 14 Days After Application, EPHHL
[8] = HELAN: sunflower (Helianthus annuus), read-out: Visual Growth Reduction (%) 14 Days After Application, HELAN
[9] = VIOTR: wild pansy (Viola tricolor), read-out: Visual Growth Reduction (%) 14 Days After Application, VIOTR

C#Cc1ccc(-c2nc(N)c(OC)c(C(=O)O)n2)c(F)c1F [Compound 154]
melting point: 142 to 144 °C
pest or weed control at 70 g/ha [1, 3]: 0 to 29%
pest or weed control at 140 g/ha [1, 3]: 45 to 59%
pest or weed control at 70 g/ha [1, 4]: 0 to 29%
pest or weed control at 140 g/ha [1, 4]: 0 to 29%
pest or weed control at 70 g/ha [1, 5]: 0 to 29%
pest or weed control at 140 g/ha [1, 5]: 60 to 74%
pest or weed control at 70 g/ha [1, 6]: 0 to 29%
pest or weed control at 140 g/ha [1, 6]: 45 to 59%
pest or weed control at 70 g/ha [1, 7]: 95 to 100%
pest or weed control at 140 g/ha [1, 7]: 95 to 100%
pest or weed control at 70 g/ha [1, 8]: 75 to 84%
pest or weed control at 140 g/ha [1, 8]: 75 to 84%
pest or weed control at 70 g/ha [1, 9]: 0 to 29%
pest or weed control at 140 g/ha [1, 9]: 0 to 29%
pest or weed control at 70 g/ha ([2]; Triticum aestivum, TRZSS (wheat), application rate 70 g ai/ha, read-out: Visual Growth Reduction (%) 14 Days After Application, TRZSS): 0 to 29%
pest or weed control at 140 g/ha ([2]; Triticum aestivum, TRZSS (wheat), application rate 140 g ai/ha, read-out: Visual Growth Reduction (%) 14 Days After Application, TRZSS): 0 to 29%
pest or weed control at 70 g/ha ([2]; CYPES: yellow nutsedge (Cyperus esculentus), application rate 70 g ai/ha, read-out: Visual Growth Reduction (%) 14 Days After Application, CYPES): 0 to 29%
pest or weed control at 140 g/ha ([2]; CYPES: yellow nutsedge (Cyperus esculentus), application rate 140 g ai/ha, read-out: Visual Growth Reduction (%) 14 Days After Application, CYPES): 0 to 29%
pest or weed control at 70 g/ha ([2]; DIGSA: crabgrass (Digitaria sanguinalis), application rate 70 g ai/ha, read-out: Visual Growth Reduction (%) 14 Days After Application, DIGSA): 0 to 29%
pest or weed control at 140 g/ha ([2]; DIGSA: crabgrass (Digitaria sanguinalis), application rate 140 g ai/ha, read-out: Visual Growth Reduction (%) 14 Days After Application, DIGSA): 0 to 29%
pest or weed control at 70 g/ha ([2]; ECHCG: barnyardgrass (Echinochloa crus-galli), application rate 70 g ai/ha, read-out: Visual Growth Reduction (%) 14 Days After Application, ECHCG): 45 to 59%
pest or weed control at 140 g/ha ([2]; ECHCG: barnyardgrass (Echinochloa crus-galli), application rate 140 g ai/ha, read-out: Visual Growth Reduction (%) 14 Days After Application, ECHCG): 45 to 59%
pest or weed control at 70 g/ha ([2]; ORYSA: rice (Oryza sativa), application rate 70 g ai/ha, read-out: Visual Growth Reduction (%) 14 Days After Application, ORYSA): 0 to 29%
pest or weed control at 140 g/ha ([2]; ORYSA: rice (Oryza sativa), application rate 140 g ai/ha, read-out: Visual Growth Reduction (%) 14 Days After Application, ORYSA): 0 to 29%
pest or weed control at 70 g/ha ([2]; SETFA: giant foxtail (Setaria faberi), application rate 70 g ai/ha, read-out: Visual Growth Reduction (%) 14 Days After Application, SETFA): 0 to 29%
pest or weed control at 140 g/ha ([2]; SETFA: giant foxtail (Setaria faberi), application rate 140 g ai/ha, read-out: Visual Growth Reduction (%) 14 Days After Application, SETFA): 0 to 29%
pest or weed control at 70 g/ha ([2]; SORVU: grain sorghum (Sorghum vulgare), application rate 70 g ai/ha, read-out: Visual Growth Reduction (%) 14 Days After Application, SORVU): 0 to 29%
pest or weed control at 140 g/ha ([2]; SORVU: grain sorghum (Sorghum vulgare), application rate 140 g ai/ha, read-out: Visual Growth Reduction (%) 14 Days After Application, SORVU): 0 to 29%
pest or weed control at 70 g/ha ([2]; ZEAMX: maize, corn (Zea mays), application rate 70 g ai/ha, read-out: Visual Growth Reduction (%) 14 Days After Application, ZEAMX): 0 to 29%
pest or weed control at 140 g/ha ([2]; ZEAMX: maize, corn (Zea mays), application rate 140 g ai/ha, read-out: Visual Growth Reduction (%) 14 Days After Application, ZEAMX): 0 to 29%

COC(=O)c1nc(-c2ccc(I)cc2F)c(F)c(N)c1Cl [Compound 9]
melting point: 136 to 138 °C
pest or weed control at 70 g/ha [1, 3]: 0 to 29%
pest or weed control at 140 g/ha [1, 3]: 0 to 29%
pest or weed control at 70 g/ha [1, 4]: 0 to 29%
pest or weed control at 140 g/ha [1, 4]: 0 to 29%
pest or weed control at 70 g/ha [1, 5]: 0 to 29%
pest or weed control at 140 g/ha [1, 5]: 0 to 29%
pest or weed control at 70 g/ha [1, 6]: 0 to 29%
pest or weed control at 140 g/ha [1, 6]: 0 to 29%
pest or weed control at 70 g/ha [1, 7]: 0 to 29%
pest or weed control at 140 g/ha [1, 7]: 0 to 29%
pest or weed control at 70 g/ha [1, 8]: 0 to 29%
pest or weed control at 140 g/ha [1, 8]: 0 to 29%
pest or weed control at 70 g/ha [1, 9]: 0 to 29%
pest or weed control at 140 g/ha [1, 9]: 0 to 29%
pest or weed control at 70 g/ha ([2]; CYPES: yellow nutsedge (Cyperus esculentus), 70 g ai/ha, read-out: Visual Growth Reduction (%) 14 Days After Application, CYPES): 0 to 29%
pest or weed control at 140 g/ha ([2]; CYPES: yellow nutsedge (Cyperus esculentus), 140 g ai/ha, read-out: Visual Growth Reduction (%) 14 Days After Application, CYPES): 0 to 29%
pest or weed control at 70 g/ha ([2]; DIGSA: crabgrass (Digitaria sanguinalis), 70 g ai/ha, read-out: Visual Growth Reduction (%) 14 Days After Application, DIGSA): 0 to 29%
pest or weed control at 140 g/ha ([2]; DIGSA: crabgrass (Digitaria sanguinalis), 140 g ai/ha, read-out: Visual Growth Reduction (%) 14 Days After Application, DIGSA): 0 to 29%
pest or weed control at 70 g/ha ([2]; ECHCG: barnyardgrass (Echinochloa crus-galli), 70 g ai/ha, read-out: Visual Growth Reduction (%) 14 Days After Application, ECHCG): 0 to 29%
pest or weed control at 140 g/ha ([2]; ECHCG: barnyardgrass (Echinochloa crus-galli), 140 g ai/ha, read-out: Visual Growth Reduction (%) 14 Days After Application, ECHCG): 0 to 29%
pest or weed control at 70 g/ha ([2]; ORYSA: rice (Oryza sativa), crop, 70 g ai/ha, read-out: Visual Growth Reduction (%) 14 Days After Application, ORYSA): 0 to 29%
pest or weed control at 140 g/ha ([2]; ORYSA: rice (Oryza sativa), crop, 140 g ai/ha, read-out: Visual Growth Reduction (%) 14 Days After Application, ORYSA): 0 to 29%
pest or weed control at 70 g/ha ([2]; SETFA: giant foxtail (Setaria faberi), 70 g ai/ha, read-out: Visual Growth Reduction (%) 14 Days After Application, SETFA): 0 to 29%
pest or weed control at 140 g/ha ([2]; SETFA: giant foxtail (Setaria faberi), 140 g ai/ha, read-out: Visual Growth Reduction (%) 14 Days After Application, SETFA): 0 to 29%
pest or weed control at 70 g/ha ([2]; SORVU: grain sorghum (Sorghum vulgare), 70 g ai/ha, read-out: Visual Growth Reduction (%) 14 Days After Application, SORVU): 0 to 29%
pest or weed control at 140 g/ha ([2]; SORVU: grain sorghum (Sorghum vulgare), 140 g ai/ha, read-out: Visual Growth Reduction (%) 14 Days After Application, SORVU): 0 to 29%
pest or weed control at 70 g/ha ([2]; TRZSS (wheat, Triticum aestivum), crop, 70 g ai/ha, read-out: Visual Growth Reduction (%) 14 Days After Application, TRZSS): 0 to 29%
pest or weed control at 140 g/ha ([2]; TRZSS (wheat, Triticum aestivum), crop, 140 g ai/ha, read-out: Visual Growth Reduction (%) 14 Days After Application, TRZSS): 0 to 29%
pest or weed control at 70 g/ha ([2]; ZEAMX: maize, corn (Zea mays), crop, 70 g ai/ha, read-out: Visual Growth Reduction (%) 14 Days After Application, ZEAMX): 0 to 29%
pest or weed control at 140 g/ha ([2]; ZEAMX: maize, corn (Zea mays), crop, 140 g ai/ha, read-out: Visual Growth Reduction (%) 14 Days After Application, ZEAMX): 0 to 29%
